From article PMC9738107, “Targeting of the ELR+CXCL/CXCR1/2 Pathway Is a Relevant Strategy for the Treatment of Paediatric Medulloblastomas” (Cells, 2022) come the findings set out here.

The subject of one assay is HR1 cells. The assay is described as follows: Clonogenic assay. Type of assay: cell-based, human. On the procedure:
(§1) Figure 8 C29 is efficient on radioresistant MB cell lines. (A) Cell death after 48 h of treatment with control (DMSO, CT) or C29 1, 2.5, or 5 µM on radiation-resistant cells (RR) and normal cells (N), n = 3. Statistics were performed using the one-way method ANOVA. * p < 0.05, ** p < 0.01, *** p < 0.001. For this figure, DR1 = D1, DR2 = D2, HR1 = H1, HR2 = H2, and C8D1A = C8. (B) Proliferation of DR1/DR2 (A) and HR1/HR2 (B) radio-resistant cells after 1 µM C29 treatment or control (DMSO), n = 3. (C) Clonogenic assay on DR1, DR2 (n = 3) and HR1, HR2 (n = 3) cells after treatment with control (DMSO) or C29 (1 µM or 2.5 µM). (D) Cell migration through the Boyden chamber of DR1 and DR2 cells specifically attracted by 200 ng/mL CXCL8. Cells were treated with control (DMSO) or C29 (1 and 2.5 µM). Results are expressed as percentage of control (n = 3). Scale = 1000 μm. Statistics were performed using Student t-test for 2 comparisons only or ANOVA test for multiple comparisons. * p < 0.05, ** p < 0.01, *** p < 0.001. […]
each month by using PlasmoTest Kit (#10L07‐MM, InvivoGen, Toulouse, France). […]
(§2) 150 Daoy/DR1/DR2/ ONS ‐ 76 and 300 HD ‐ MB03/HR1/HR2 cells were seeded in trip‐ licate in 6‐well plates in the presence or absence of treatment (1 or 2∙5μM MCK140 or DMSO as control). […] The number of clones was quantified using ImageJ software. […]

In a further assay the test system is DR1 and DR2 cells. As to the kind of experiment: CXCL8-dependent migration in Boyden chamber. Particulars: DR1 and DR2, 1 µM, 200 ng/mL CXCL8. Type of assay: cell-based, human. The protocol: as §1, with “(D) Cell migration through the Boyden chamber of DR1 and DR2 cells specifically attracted by 200 ng/mL CXCL8. Cells were treated with control (DMSO) or C29 (1 and 2.5 µM).” left out, “3).” for “3). Scale = 1000 μm. Statistics were performed using Student t-test for 2 comparisons only or ANOVA test for multiple comparisons. * p < 0.05, ** p < 0.01, *** p < 0.001.”
1500 Daoy, ONS ‐76, HD ‐MB03 or D341 Med cells were sown in triplicate in plates with six wells and the cells were counted daily for 8 days using a Coulter counter (Ville‐ pinte). The relative number of cells (compared to day 1) was determined daily. […]
Y = Y0 * exp(k * X) (Y= Cell number at day X; Y0= Cell number at day 0 (graphically calculated); X= Day following cell plating (cells plated at X0=0); k= Exponential growth constant rate. Doubling times were compared.
as §2

Molecules are shown by their SMILES.

Take `O=C(Nc1cccc(Cl)c1)Nc1nc2ccc([N+](=O)[O-])cc2s1` [C29, 1-(3-chlorophenyl)-3-(6-nitrobenzo[d]thiazol-2-yl) urea]: the Clone formation result in the assay with HR1 cells (HR1, 1 µM) was “reduced the number of clones”; with HR1 cells (HR1, 2.5 µM), “extinguished them”. The CXCL8-dependent migration entry with DR1 and DR2 cells is given as “significantly inhibited”.
